Experimental data reported in patent publication US10662481B2, “Methods for predicting response to HDACi/DNMTi combination in multiple myeloma” (INSERM (INSTITUT NATIONAL DE LA SANTÉ ET DE LA RECHERCHE …, priority 2014, dated 2020).

Columns and labels:
Assay type in all cases: cell-based, human
Details in all cases: 0.5 μM decitabine, mean ± SD of viable cells, 3 experiments
XG-5 = assay: Cell viability of HMCLs by trypan blue exclusion (XG-5)
XG-20 = assay: Cell viability of HMCLs by trypan blue exclusion (XG-20)
LP1 = assay: Cell viability of HMCLs by trypan blue exclusion (LP1)
XG-6 = assay: Cell viability of HMCLs by trypan blue exclusion (XG-6)
XG-7 = assay: Cell viability of HMCLs by trypan blue exclusion (XG-7)

Nc1ncn([C@H]2C[C@H](O)[C@@H](CO)O2)c(=O)n1 [5-aza, 5-aza-2′-deoxycytidine]
Cell viability (%) Day 3 5-aza (XG-5): 65 ± 5% | Cell viability (%) Day 3 5-aza (XG-20): 91 ± 3% | Cell viability (%) Day 3 5-aza (LP1): 91 ± 2% | Cell viability (%) Day 3 5-aza (XG-6): 90 ± 1% | Cell viability (%) Day 3 5-aza (XG-7): 90 ± 2%
